In ChEMBL document CHEMBL6103654, “Design, Biological Characterization, and Discovery of Capromorelin Derivatives as Oral Growth Hormone Secretagogue Receptor Type 1a Agonist for the Treatment of Growth Hormone Deficiency” (J Med Chem, 2025):

What was measured:
[1] = Agonist activity at human GHSR expressed in CHO cells incubated for 60 min by FLIPR assay; format: cell-based; details: 1 h
CHO [2] = assay: Agonist activity at human GHSR expressed in CHO cells at maximum concentration incubated for 60 min by FLIPR assay relative to control; format: cell-based
[3] = AUC in male Sprague-Dawley rat at 2 mg/kg, po administered as single dose measured after 4 hrs; format: ADME, organism-based; details: in vivo
[4] = Clearance in male Sprague-Dawley rat plasma at 1 mg/kg, iv administered as single dose measured after 4 hrs; format: ADME, organism-based
[5] = Elimination half life in male Sprague-Dawley rat at 1 mg/kg, iv administered as single dose measured after 4 hrs; format: ADME, organism-based; details: in vivo, read-out: beta t1/2 (converted)
[6] = Volume of distribution in male Sprague-Dawley rat at 1 mg/kg, iv administered as single dose measured after 4 hrs; format: ADME, organism-based; details: in vivo
[7] = Tmax in male Sprague-Dawley rat at 2 mg/kg, po administered as single dose measured after 4 hrs; format: ADME, organism-based; details: in vivo
[8] = Cmax in male Sprague-Dawley rat at 2 mg/kg, po administered as single dose measured after 4 hrs; format: ADME, organism-based; details: in vivo
[9] = Oral bioavailability in male Sprague-Dawley rat at 2 mg/kg administered as single dose measured after 4 hrs; format: ADME, organism-based; details: in vivo
[10] = target: Growth hormone secretagogue receptor type 1 (Rattus norvegicus, UniProt O08725); assay: Agonist activity at rat GHSR expressed in CHO cells incubated for 60 min by FLIPR assay; format: functional, cell-based
CHO [11] = assay: Agonist activity at monkey GHSR expressed in CHO cells at maximum concentration incubated for 60 min by FLIPR assay relative to control; format: cell-based; details: Macaca mulatta, filed as agonist
[12] = Agonist activity at dog GHSR expressed in CHO cells incubated for 60 min by FLIPR assay; format: cell-based; details: 1 h
[13] = Elimination half life in male Sprague-Dawley rat at 2 mg/kg, po administered as single dose measured after 4 hrs; format: ADME, organism-based; details: in vivo, read-out: beta t1/2 (converted)
[14] = Agonist activity at monkey GHSR expressed in CHO cells incubated for 60 min by FLIPR assay; format: cell-based; details: Macaca mulatta, 1 h
CHO [15] = assay: Agonist activity at dog GHSR expressed in CHO cells at maximum concentration incubated for 60 min by FLIPR assay relative to control; format: cell-based; details: Canis lupus familiaris, filed as agonist
[16] = target: Growth hormone secretagogue receptor type 1 (Rattus norvegicus) (UniProt O08725); assay: Agonist activity at rat GHSR expressed in CHO cells at maximum concentration incubated for 60 min by FLIPR assay relative to control; format: functional, cell-based; details: filed as agonist
Sequence of Growth hormone secretagogue receptor type 1 (Rattus norvegicus) (O08725 whole entry): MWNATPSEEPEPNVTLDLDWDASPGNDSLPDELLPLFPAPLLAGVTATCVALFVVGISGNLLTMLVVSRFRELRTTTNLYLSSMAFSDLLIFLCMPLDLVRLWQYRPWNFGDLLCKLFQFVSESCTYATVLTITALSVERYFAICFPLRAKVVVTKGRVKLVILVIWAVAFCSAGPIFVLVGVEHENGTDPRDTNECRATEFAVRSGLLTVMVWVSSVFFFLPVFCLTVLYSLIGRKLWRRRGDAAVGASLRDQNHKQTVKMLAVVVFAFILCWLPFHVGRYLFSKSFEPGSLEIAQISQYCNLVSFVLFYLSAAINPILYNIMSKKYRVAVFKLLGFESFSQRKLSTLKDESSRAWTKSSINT

Sequence of Growth hormone secretagogue receptor type 1 (O08725 whole entry): as above

| SMILES | EC50 [1] | Activity (CHO [2]; filed as agonist) | AUC at 4 h [3] | clearance [4] | half-life [5] | Vd [6] | Tmax [7] | Cmax [8] | bioavailability [9] | EC50 [10] | Activity (CHO [11]) | EC50 [12] | half-life [13] | EC50 [14] | Activity (CHO [15]) | Activity [16] | Activity (CHO [2]) |
| --- | --- | --- | --- | --- | --- | --- | --- | --- | --- | --- | --- | --- | --- | --- | --- | --- | --- |
| Cn1nc2c(c1-c1ccccc1)CN(C(=O)[C@@H](COCc1ccccc1)NC(=O)C(C)(C)N)CC2 | 72.4 nM | 72% |  |  |  |  |  |  |  |  |  |  |  |  |  |  |  |
| CC(C)(N)C(=O)N[C@H](COCc1ccccc1)C(=O)N1CCC2=NN(C3CCC3)C(=O)[C@]2(Cc2ccccc2)C1 | 1.19 nM | 107% | 21.1 ng·h/mL | 50.5 mL/min/kg | 48 min | 3.5 L/kg | 30 min | 8.4 ng/mL | 3.3% | 0.014 nM | 104% | 0.048 nM | 109 min | 0.02 nM | 125% | 104% |  |
| CC(C)(N)C(=O)N[C@H](COCc1ccccc1)C(=O)N1CCC2=NN(C(C)(C)C)C(=O)[C@]2(Cc2ccccc2)C1 | 1.34 nM | 143% |  |  |  |  |  |  |  | 0.016 nM | 99.3% | 0.071 nM |  | 0.044 nM | 123% | 112% |  |
| CN1N=C2CCN(C(=O)[C@@H](COCc3ccccc3)NC(=O)C(C)(C)N)C[C@@]2(Cc2ccccc2)C1=O [CAPROMORELIN] | 1.37 nM | 119% |  |  |  |  |  |  |  | 0.017 nM | 109% | 0.118 nM |  | 0.074 nM | 155% | 111% |  |
| CC(C)(N)C(=O)N[C@H](COCc1ccccc1)C(=O)N1CC(C)(C)C2=NNC(=O)[C@]2(Cc2ccccc2)C1 | 53.3 nM |  |  |  |  |  |  |  |  |  |  |  |  |  |  |  | 25.4% |
| CC(C)(N)C(=O)N[C@H](COCc1ccccc1)C(=O)N1C2CCC1[C@@]1(Cc3ccccc3)C(=O)NN=C1C2 (stereo partly drawn) | 447 nM | 41.7% |  |  |  |  |  |  |  |  |  |  |  |  |  |  |  |
| CC(C)(N)C(=O)N[C@H](COCc1ccccc1)C(=O)N1CCC2=NN(C3CCCC3)C(=O)[C@]2(Cc2ccccc2)C1 | 0.58 nM | 121% |  |  |  |  |  |  |  | 0.021 nM | 110% | 0.105 nM |  | 0.051 nM | 117% | 97.2% |  |
| CN1N=C2C(C)(C)CN(C(=O)[C@@H](COCc3ccccc3)NC(=O)C(C)(C)N)C[C@@]2(Cc2ccccc2)C1=O | 63.7 nM | 82.2% |  |  |  |  |  |  |  |  |  |  |  |  |  |  |  |
| CC(C)(N)C(=O)N[C@H](COCc1ccccc1)C(=O)N1CCC2=NN(C(F)(F)F)C(=O)[C@]2(Cc2ccccc2)C1 | 0.58 nM | 106% | 214 ng·h/mL | 70.9 mL/min/kg | 178 min | 16.1 L/kg | 19.8 min | 219 ng/mL | 44.8% | 0.012 nM | 103% | 0.077 nM | 72 min | 0.062 nM | 115% | 96% |  |
| CC(C)(N)C(=O)N[C@H](COCc1ccccc1)C(=O)N1CCC2=NN(C(F)F)C(=O)[C@]2(Cc2ccccc2)C1 | > 1000 nM |  |  |  |  |  |  |  |  |  |  |  |  |  |  |  | 11% |
| CC(C)(N)C(=O)N[C@H](COCc1ccccc1)C(=O)N1CCC2=NN(C3CCCCC3)C(=O)[C@]2(Cc2ccccc2)C1 | 2.63 nM | 137% |  |  |  |  |  |  |  |  |  |  |  |  |  |  |  |
